{"source": "patent US6589787B2", "about": "“T-type calcium channel variants; compositions thereof; and uses” (Syntex (U.S.A.) LLC, priority 1998, dated 2003)", "origin": "cited, not measured here", "test_system": "T-type Ca^2+ current", "conditions": "freshly dissected neurons from dorsal root ganglia (DRG neurons) of adult rats", "data": [{"smiles": "CCC1(C)CC(=O)NC1=O", "note": "(stereo not shown) [ethosuximide]", "values": [{"measurement": "block of T-type Ca^2+ current", "result": "fully block"}]}]}
